Data reported in the METLIN SMRT retention time set (Domingo-Almenara et al. 2019).

Experiment: gradient 5% acetonitrile 3 min, to 50% in 2 min, to 85% in 15 min, held 3 min, 100 µL/min
Details: column: Zorbax Extend-C18 2.1 x 50 mm; eluents: water / acetonitrile, 0.1% formic acid
In short: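 Standards, all pure, were combined into mixtures of ~100 molecules and run at 100 μL/min on a Zorbax Extend-C18 column (2.1 × 50 mm, 1.8 μm) with water and acetonitrile, each containing 0.1% formic acid. A coupled quadrupole time-of-flight mass spectrometer operated in positive and negative ionization mode. Retention time values come from computationally picked adduct peaks, each inspected manually.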

SMILES | RP-LC retention time [s]
COc1ccc(C)cc1NC(=O)N1CCN(c2cnn3c(C)nnc3c2)CC1 | 648
O=c1c2sccc2n(Cc2nc(-c3ccc(F)c(Cl)c3)no2)c(=O)n1Cc1ccccc1 | 1210
CCCSc1nnc(CNC(=O)c2ccccc2F)n1-c1cccc(C(F)(F)F)c1 | 831
CC(O)Cn1cnc2c1c(=O)n(C)c(=O)n2C (centres undefined) | 1100
Cc1nc(CNC(=O)C2CCN(C(=O)Nc3ccc(C)c(Cl)c3)CC2)cs1 | 714
CCN1C(=O)c2cccnc2Sc2cc(NC(=O)c3ccc(C)cc3C)ccc21 | 918
O=C(NCCc1c[nH]c2ccccc12)c1cc2cccnc2n(Cc2ccc(F)cc2)c1=O | 1090
CCOC(=O)c1c(CN2CCCC2)n(C)c2cc(-c3ccncc3)c3c(c12)CN(C)CO3 | 730
COc1cc(NC(=O)N2c3ccccc3CC2c2nc(C3CC3)no2)cc(OC)c1 (centres undefined) | 1030
CCS(=O)(=O)NCCc1csc(C)n1 | 572
CNC(=O)c1noc([C@@H]2CC(F)(F)CN2C(=O)CCOC)n1 | 607
COc1ccccc1-c1nc(Cn2nnc(-c3nc(-c4cccc(C(F)(F)F)c4)no3)c2C)c(C)o1 | 1250
COc1ccc(CN2C(=O)COC[C@H]2C(=O)NCc2ccco2)c(OC)c1 | 704
Cc1oc(-c2[nH]ncc2C(=O)N(C)C)cc1S(=O)(=O)Nc1ccc(F)cc1Cl | 696
O=C(CSc1ncnc2c1[nH]c1ccccc12)N1CCc2ccccc2C1 | 842
COC(=O)c1c(NCCc2c[nH]c3ccccc23)c2cccc(Cl)c2[nH]c1=O | 824
COc1ccc(C(C)NC(=O)C2CCCN(c3cnc4nccnc4c3)C2)cc1OC (centres undefined) | 663
O=C(CSc1ccc(F)cc1)Nc1cccc2ccc(-n3ccnc3)nc12 | 659
Cn1cc(C(=O)NC2CCCCC2)c2nn(-c3ccccc3)c(=O)c-2c1 | 678
O=C(C1CCN(c2nc3ccsc3c(=O)n2-c2ccccc2)CC1)N1CCN(c2ccccc2)CC1 | 917
O=C(Cc1ccc(Cl)cc1)NC1CCN(c2nnc3ccc(C(F)(F)F)cn23)CC1 | 799
CCn1cc2c3c(cccc31)CN(C(=O)c1ccc(Br)o1)CC2 | 1050

SMILES | RP-LC retention time [s]
CNCc1ccc(-c2cc(Cl)ccc2Cl)o1 | 653
CCn1c(C(=O)N2CCCC(C(=O)NCCc3ccc(S(N)(=O)=O)cc3)C2)cc2sccc21 (centres undefined) | 733
Cc1ccc(-n2nc3c(N4CCCC(C(=O)NCc5ccccc5)C4)nnc(C)c3c2C)cc1 (centres undefined) | 754
O=C1NC2=C(C(=O)N(CCC3=CCCCC3)C2)C(c2ccccc2F)N1 (centres undefined) | 684
COc1ccc(-n2cc(C(=O)Nc3ccc(OC)cc3OC)nn2)cc1 | 1000
CSc1ccc(C(C(C(=O)c2ccco2)N2CCOCC2)N2CCOCC2)cc1 (centres undefined) | 698
Cc1cccc2nc(-c3c(F)cccc3Cl)c(Nc3ccc4c(c3)OCCO4)n12 | 678
Cc1cc(NC(=O)Cn2nc(N3CCCC3)c3ccccc3c2=O)ccc1Br | 1060
CCCNC(=O)N1CCCN(C2=NS(=O)(=O)C(c3ccc(F)cc3)=C2C)CC1 | 861
COC(=O)c1cccc(N2C=C(C#N)S(=O)(=O)c3c(F)cccc32)c1 | 847
O=C1COc2ccc(-c3csc(NC(=O)c4ccc(F)cc4)n3)cc2N1 | 838
Cc1ccc(F)cc1S(=O)(=O)N1CCN(c2nc3ccncc3n(C)c2=O)CC1 | 586
COc1cc([C@@H]2c3cc4c(cc3[C@H](O)[C@@H](CO)[C@@H]2C(=O)Nc2ccc(C)cc2)OCO4)cc(OC)c1OC | 763
Cc1ccc(S(=O)(=O)N2CCCC2c2nc(-c3ccc(Cl)cc3)no2)cc1F (centres undefined) | 1230
COC(=O)Cn1c(=O)c2c(nc3n2CCCN3c2ccc(Cl)cc2)n(C)c1=O | 868
Cc1oc2ccn(C)c(=O)c2c1C(=O)NCc1ccccc1Br | 914
Cc1cc(C(=O)NCc2ccc(C)o2)c2c(C)nn(-c3ccccc3)c2n1 | 964
O=C(NCc1ccccc1Cl)c1c(O)c2cccnc2n(-c2ccc(F)cc2)c1=O | 1240
COc1cccc(CNC(=O)C2(C)Oc3cccnc3N(C)C2=O)c1 (centres undefined) | 748
O=C(Nc1ccc(-c2ccc3nnc(-c4ccncc4)n3n2)cc1)c1cccc(Cl)c1 | 675
Cc1nnc(N2CCCC(C(=O)N3CCCCC3)C2)c2nn(-c3ccc(Cl)cc3)c(C)c12 (centres undefined) | 741
Cc1ccn2cc(C(=O)N3CCN(c4ccc(Cl)cc4)CC3)nc2c1 | 715

SMILES | RP-LC retention time [s]
COc1ccc(NC(=O)C2CCN(C(=O)c3nnc(C(=O)Nc4ccc(F)cc4)s3)CC2)cc1 | 903
N#Cc1ccc(S(=O)(=O)N2CCCN(S(=O)(=O)c3ccccc3)CCC(=O)NCC2)cc1 | 797
O=C(Nc1cccc(Cl)c1)N1CCc2nc(-c3ccc(Cl)cc3)ncc2C1 | 1150
CCC(=O)N1CCc2cc(C(=O)NC(C)C)ccc21 | 685
CC1CCN(C(=O)c2ccc3c(c2)N(CC(=O)NC(C)C)C(=O)CO3)CC1 | 684
COCCC1CCN(C(=O)CN(C)C(=O)c2ccc(C#N)cc2)CC1 | 666
CCCN(CCC)c1ncc(NC(=O)c2ccc(Br)cc2)cc1C(=O)O | 766
Cc1ccc(-c2csc3c(=O)n(CC(=O)NC4CCCC4)cnc23)cc1 | 912
Cc1cc2nc(C(F)(F)F)c(=O)n(C(C)C(=O)N3CCN(C(=O)c4ccco4)CC3)c2cc1C (centres undefined) | 957
O=C1OC2CC1N(C(=O)Cn1c(=O)oc3ccccc31)C2 (centres undefined) | 618
Cc1nn(-c2cc(N(C)C)ncn2)c(C)c1CCC(=O)NCc1ccco1 | 684
COc1ccccc1-c1nc(Cn2nnc(-c3nc(-c4cccc(F)c4)no3)c2C)c(C)o1 | 1130
Cc1ccc(-c2cc3c(=O)n(CC(O)c4ccc(C)c(C)c4)ccn3n2)c(C)c1 (centres undefined) | 1080
CCCOc1ccc(-c2nc(N3CCCCCC3)c3ccccc3n2)cc1 | 971
Cc1ccc(N2CCC(NS(=O)(=O)c3ccccc3F)C2=O)cc1 (centres undefined) | 894
Cn1nc(C(=O)N2CCCC2)c2c1CCN(C(=O)CCC(=O)NCCC1=CCCCC1)C2 | 734
CC1CCC2(CC1)N=C(c1ccccc1)C(=O)N2CC(=O)Nc1ccc2c(c1)OCCO2 (centres undefined) | 1120
CCc1nnc(-c2cc(NC(=O)c3ccnn3C)c(C)s2)o1 | 774
CC(Cc1ccco1)NC(=O)c1cc(S(=O)(=O)N2CCCCCC2)ccc1Cl (centres undefined) | 1010
O=c1c2cc(-c3cccc4ccccc34)nn2ccn1Cc1nc(-c2ccccc2)no1 | 1140
